System: Ph9F-1x
Assay: Adipogenesis of fish adipose-derived cell line (AdipoRed / Hoechst 33342 staining)
Assay type: cell-based, Pangasianodon hypophthalmus
Settings: for adipogenesis induction efficiency: addition to adipogenesis induction composition (FIGS. 22 and 25)
Method: Adipogenesis of adipose-derived cells were induced. The cells were resuspended at cell density of 100,000 cells/ml of complete growth medium and seeded at 100 μl/well into gelatin-coated 96-well flat-bottom black plates. The cells were incubated at 28° C. in a humidified atmosphere containing 5% CO2. […] After 3 and 6 days of adipogenic induction, the cells were induced with DMEM, 15% FBS, 0.1% fish serum, 300 U/ml of penicillin, 300 μg/mL of streptomycin, and adipogenic induction cocktail 2, containing 167 nM of insulin. Linoleic acid-oleic acid albumin (LAOA, Sigma-Aldrich), docosahexaenoic acid (DHA, Cayman Chemical), eicosapentaenoic acid (EPA, Cayman Chemical), oleic acid albumin (OAA, Sigma Aldrich), and linoleic acid albumin (LAA, Sigma Aldrich) can also be added to the adipogenic induction cocktail, if required. […] The cells were imaged using N-STORM/TIRF microscope and analysed using NIS-Element software.

[1] = 100 μM vitamin, Essential 6, fish serum, LAOA, IBMX, dexamethasone, after 6 days

Row | Compound | percentage of matured adipocytes [1] | total lipid content [1] | further results
1 | CC(C)(CO)[C@H](O)C(=O)NCCC(=O)O [D-pantothenic acid] | did not significantly enhance | did not significantly enhance | –
2 | CC/C=C\C/C=C\C/C=C\C/C=C\C/C=C\C/C=C\CCC(=O)O [DHA, docosahexaenoic acid] | – | – | nuclei count after adipogenesis (100 μM, final 3 days of adipogenesis): significantly reduced
3 | O=C(O)CCCC[C@@H]1SC[C@@H]2NC(=O)N[C@@H]21 [biotin] | did not significantly enhance | did not significantly enhance | –
4 | O=C1O[C@H]([C@@H](O)CO)C(O)=C1O [vitamin C] | – | – | adipogenesis induction efficiency: no adverse effects
5 | C=C1CC[C@H](O)C/C1=C/C=C1\CCC[C@]2(C)[C@@H]([C@H](C)CCCC(C)C)CC[C@@H]12 [vitamin D3] | did not significantly enhance | did not significantly enhance | total lipid content of matured adipocyte (intensity) (100 μM, 6 days, AdipoRed fluorescence intensity, borderline statistical significance): 3.5×10^9; adipogenesis induction efficiency: no adverse effects
6 | CC(=O)Oc1c(C)c(C)c2c(c1C)CCC(C)(CCC[C@H](C)CCC[C@H](C)CCCC(C)C)O2 (stereo partly drawn) [α-tocopherol acetate] | did not significantly enhance | did not significantly enhance | –
7 | oleic acid albumin [OAA] | – | – | percentage of matured adipocytes (100 μM, 6 days, as compared to LAA): significantly enhanced
